Test system: Keratinocytes (H-tert-keratinocytes) subjected to oxidative stress
Assay: Oxidative Stress Test (cellular ATP level, ATP Glo luminescence)
Format: cell-based, human
Conditions: 90 minutes
Description: This test method provides a suitable way to determine the ability of a test agent to improve cellular ATP production in cells subjected to oxidative stress.
Keratinocytes (e.g., H-tert-keratinocytes from University of Texas Southwestern) are cultured in T150 flasks in EpiLife Medium (e.g., catalogue #MEPICFPRF500 from Thermo Fisher Scientific) supplemented with human keratinocyte growth supplement (e.g., catalogue #S-001-5 from Thermo Fisher Scientific) and 1% penicillin/streptomycin (e.g., catalogue #15140-122 from Thermo Fisher Scientific). When the keratinocytes reach ˜70% confluency, they are plated out into 96 well plates (white, clear bottom with 20,000 cells/well). Incubate the plates for 24 hours before the experimental stress and treatment are applied.
The 96 well plate is divided into three groups of samples (wells) as follows: (i) no stress and no treatment is applied, (ii) stress is applied but no treatment and (iii) stress and treatment are both applied. In combination experiments, stress plus 2 treatments may be applied. For the no stress/no treatment samples (i.e., group (i) above), the culture medium is simply refreshed. For the stressed samples (i.e., group (ii) and (iii) above), culture medium containing 400 μM hydrogen peroxide (HOOH) is used to replace the medium. For the treatment samples (i.e., group (iii) above), immediately after adding the HOOH, pipette the treatment(s) into the wells from a 100× master stock. Return the plates to the CO2 incubator for 90 minutes before measuring ATP.
ATP is measured by removing the media from the samples and replacing it with ATP Glo® reagent (available from Promega, Madison, WI), or equivalent, per manufacturer's instructions. After 10 minutes of exposure at room temperature, the luminescence of each sample can be measured using a Perkin Elmer ENVISION brand plate reader or equivalent. Luminescent counts are directly proportional to ATP level in the cells. Record the luminescent counts for each sample.
Replicates of each treatment group are averaged together, and standard p-value calculations are used (2-sided, equal variance) to calculate significance. In cases where 2 treatments appear to synergistically enhance ATP levels, the results of the combined treatments can be compared to the sum of the individual treatments to determine a synergy factor. The synergy factor is calculated as the ratio of the observed effect from the combined treatments divided by the sum of the results from each individual treatment.
The test agents used in the Oxidative Stress Test are limited to relatively low concentrations due to cell toxicity. That is, applying high concentrations of the test agent directly to “unprotected” keratinocytes may kill some of all of the cells, which would obviously skew the test results. […]

CCCCCCCCC(CO)CCCCCC (stereo not shown) [Fatty Alcohol, hexyldecanol]
Measured ATP level (Fatty Alcohol 0.2 ppm, 400 μM hydrogen peroxide): 368.3
Measured ATP level (Fatty Alcohol 1 ppm, keratinocytes stressed with 400 μM hydrogen peroxide, luminescent counts): 534.3
Measured ATP level (Fatty Alcohol 5 ppm, 400 μM hydrogen peroxide): 708.0
Measured ATP level (Fatty Alcohol 50 ppm, 400 μM hydrogen peroxide): 962.3
